Measurements from patent publication US10233201B2, “Class of HDAC inhibitors expands the renal progenitor cells population and improves the rate of recovery from acute kidney injury” (University of Pittsburgh—Of the Commonwealth System of …, priority 2012, dated 2019).

Tested on: Acetylated Histone H3 K9 (Ac-H3 K9)
Test: Renal histone H3 K9 acetylation after single injection in CD1 mice
Format: in vivo, mouse
Experimental: PTBA analogues are soluble in 1% DMSO/water, are administered subcutaneously as a single injection in adult CD1 mice, and kidneys harvested at 12, 24 and 48 hours to evaluate histone acetylation (which should increase with HDACi). PTBA analogs are used at a dose range determined from comparative dose efficacy with m4PTB in the secondary zebrafish screen. Acetylated Histone H3 K9 (Ac-H3 K9) is evaluated, as this is most easily detected by Western blot in nuclear extracts from mouse renal tissues. Preliminary studies compared the effect of Trichostatin A (an established, but toxic HDACi) at an effective dose in the zebrafish screen ([…]) with an equivalent dose of m4PTB (0.8 mM), and then X2 and X4 dose increments (molar concentration in vivo based on estimate uniform distribution relative to body mass of water). 3.4 mg/kg (4×) m4PTB induced maximal expression of Ac-H3 K9 after 24 hours (FIG. 36). This effect was increased compared with TSA or lower doses of m4PTB, so we elected to use this dose of m4PTB (3.4 mg/kg) for AKI studies in mice. […]
We evaluated efficacy and effective dosage of a second-generation PTBA analogue, m4PTB, by determining the kinetics of renal Histone H3 K9 acetylation (H3K9Ac) following a single SC injection. […]

With COC(=O)CCCSc1ccccc1 [UPHD-00025, methyl 4-(phenylsulfanyl) butanoate] the “persistence of H3K9Ac induction” value (3.4 mg/kg single SC injection) was 24 h and the “dose inducing maximal Ac-H3 K9 expression in kidney” value (single SC injection, after 24 hours) was 3.4 mg/kg.
